Peptide text beside a SMILES is read from it.
What was measured:
[1] = In vitro protein binding, rapid equilibrium dialysis; format: in vitro ADME; settings: CD-1, mouse, plasma
[2] = Excretion study in SD rats following single subcutaneous administration; format: in vivo, SD rat; settings: for Accumulative Dose Recovery: 0 h, n=3, mean
[3] = Plasma stability; format: in vitro ADME, SD rat
[4] = tested on: CYP3A; test: CYP450 inhibition assay; format: in vitro ADME; settings: human, pooled human liver microsomes
[5] = target: T1, CYP2B6 (Homo sapiens, UniProt P20813); test: biochemical; format: in vitro ADME
T1 sequence (P20813 1-491): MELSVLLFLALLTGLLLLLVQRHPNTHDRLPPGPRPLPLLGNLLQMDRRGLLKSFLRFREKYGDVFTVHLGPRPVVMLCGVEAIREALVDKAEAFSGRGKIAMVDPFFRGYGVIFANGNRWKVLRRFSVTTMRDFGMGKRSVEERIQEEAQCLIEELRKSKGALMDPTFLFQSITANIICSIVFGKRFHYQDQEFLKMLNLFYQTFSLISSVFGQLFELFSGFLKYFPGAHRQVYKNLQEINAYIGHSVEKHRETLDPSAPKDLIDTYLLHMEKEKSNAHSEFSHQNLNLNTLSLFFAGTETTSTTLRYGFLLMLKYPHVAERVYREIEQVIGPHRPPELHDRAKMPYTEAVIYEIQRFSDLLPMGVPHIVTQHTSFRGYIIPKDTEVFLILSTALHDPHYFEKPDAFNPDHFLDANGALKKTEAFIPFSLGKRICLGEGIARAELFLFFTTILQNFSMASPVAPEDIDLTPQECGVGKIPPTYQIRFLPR

[6] = target: T2, CYP1A2 (Homo sapiens, UniProt P05177); test: biochemical; format: in vitro ADME
T2 sequence (P05177 1-516): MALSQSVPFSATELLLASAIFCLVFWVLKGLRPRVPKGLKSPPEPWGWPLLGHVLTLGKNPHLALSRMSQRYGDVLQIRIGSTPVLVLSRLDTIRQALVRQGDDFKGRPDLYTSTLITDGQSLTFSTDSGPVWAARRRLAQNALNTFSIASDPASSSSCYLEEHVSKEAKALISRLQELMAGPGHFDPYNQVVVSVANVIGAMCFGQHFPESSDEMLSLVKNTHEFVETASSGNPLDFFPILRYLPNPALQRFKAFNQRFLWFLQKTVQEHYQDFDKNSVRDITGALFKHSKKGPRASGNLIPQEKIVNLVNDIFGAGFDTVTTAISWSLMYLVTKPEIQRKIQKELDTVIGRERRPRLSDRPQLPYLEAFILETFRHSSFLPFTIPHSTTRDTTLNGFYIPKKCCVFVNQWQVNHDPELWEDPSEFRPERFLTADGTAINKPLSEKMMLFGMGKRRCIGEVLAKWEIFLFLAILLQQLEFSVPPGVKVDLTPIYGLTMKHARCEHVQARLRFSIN

[7] = In vitro protein binding, rapid equilibrium dialysis; format: in vitro ADME; settings: beagle, dog, plasma
[8] = Plasma stability; format: in vitro ADME, cynomolgus monkey
[9] = male, SD, rat, urine, sc, 10 mg/kg
[10] = male, Sprague-Dawley, rat, bile, sc, 10 mg/kg
[11] = male, Sprague-Dawley, rat, feces, sc, 10 mg/kg
[12] = male, Sprague-Dawley, rat, urine + feces, sc, 10 mg/kg
[13] = male, Sprague-Dawley, rat, urine, sc, 10 mg/kg

## CC(C)[C@@H](NC(=O)[C@H](N)Cc1ccc(O)cc1)C(=O)N[C@H](CC(=O)O)C(=O)N[C@H](CCCCN)C(=O)N[C@H](CCCNC(=N)N)C(=O)O [FC-12738, (D-Tyr)-(D-Val)-(D-Asp)-(D-Lys)-(D-Arg)] (HELM PEPTIDE1{[dY].[dV].[dD].[dK].[dR]}$$$$V2.0)
[1]
  fraction unbound at 6 h, 0.2 µM: 0.449
  fraction unbound at 6 h, 2 µM: 0.455
  fraction unbound at 6 h, 10 µM: 0.479
[2]; bile, male bile-duct-cannulated SD rats, SC 10 mg/kg single
  Accumulative Dose Recovery: 0.00%
[2]; feces, male intact SD rats, SC 10 mg/kg single
  Accumulative Dose Recovery: 0.00%
[2]; male SD rats, SC 10 mg/kg single, excretion study
  Tolerability / adverse effects in-life: No adverse effect was observed
[2]; [9]
  dose excreted at 96 h: 86.4%
  dose excreted at 120 h: 86.6%
  dose excreted at 144 h: 86.7%
[2]; [10]
  dose excreted at 4 h: 0.284%
  dose excreted at 12 h: 0.314%
  dose excreted at 24 h: 0.324%
  dose excreted at 48 h: 0.331%
  dose excreted at 72 h: 0.336%
[2]; [11]
  dose excreted at 4 h: 0.00168%
  dose excreted at 8 h: 0.00239%
  dose excreted at 24 h: 1.74%
  dose excreted at 48 h: 2.08%
  dose excreted at 72 h: 2.14%
  dose excreted at 96 h: 2.16%
  dose excreted at 120 h: 2.18%
  dose excreted at 144 h: 2.19%
  dose excreted at 168 h: 2.19%
[2]; [12]
  dose excreted at 4 h: 56.2%
  dose excreted at 8 h: 78.2%
  dose excreted at 24 h: 85.8%
  dose excreted at 48 h: 88.2%
  dose excreted at 72 h: 88.5%
  dose excreted at 96 h: 88.6%
  dose excreted at 120 h: 88.7%
  dose excreted at 144 h: 88.9%
  dose excreted at 168 h: 88.9%
[2]; [13]
  dose excreted at 4 h: 56.2%
  dose excreted at 8 h: 78.2%
  dose excreted at 24 h: 84%
  dose excreted at 48 h: 86.1%
  dose excreted at 72 h: 86.4%
  dose excreted at 168 h: 86.7%
[2]; total (urine + feces), male intact SD rats, SC 10 mg/kg single
  Accumulative Dose Recovery: 0.00%
[2]; urine, male intact SD rats, SC 10 mg/kg single
  Accumulative Dose Recovery: 0.00%
[3]; SD rat plasma, 2.00 μM, 37.0 °C, up to 120 min
  half-life: > 6.212 h
[3]; SD, rat, plasma
  remaining at 10 min, 2 μM: 104%
  remaining at 0.5 h, 2 μM: 102%
  remaining at 1 h, 2 μM: 113%
  remaining at 2 h, 2 μM: 104%
[4]
  IC50: > 100 µM
[5]
  IC50: > 100 µM
[5]; cutoff IC50 shift >= 1.5-fold, 30 min pre-incubation ± NADPH
  Time-dependent inhibition of CYP2B6: no time-dependent inhibition
[6]
  IC50: > 100 µM
[7]
  fraction unbound at 6 h, 0.2 µM: 0.492
  fraction unbound at 6 h, 2 µM: 0.461
  fraction unbound at 6 h, 10 µM: 0.691
[8]; cynomolgus monkey plasma, 2.00 μM, 37.0 °C, up to 120 min
  half-life: > 6.212 h
[8]; monkey, plasma
  remaining at 10 min, 2 μM: 105%
  remaining at 0.5 h, 2 μM: 105%
  remaining at 1 h, 2 μM: 105%
  remaining at 2 h, 2 μM: 102%

From publication doi:10.1101/2023.04.18.537371v1 (bioRxiv, 2023)
